Where two headings read alike, the source gives them in different places.
Tests used:
[1] = test system: isolated polymorphonuclear leucocytes (PMNL); assay: Chemiluminescence test (CL), PMNL method (isolated granulocytes); type: cell-based, human; settings: CL method not stated
Method: 2. Chemiluminescence test (CL)
The low light yield of such CL-reactions of phagocytised cells is increased in the in-vitro-experiment by the addition of substances which are oxydated by activated oxygen and thus produce light of a certain wavelength, which can be physically measured. Suitable substrates are luminole (5-amino-2,3-dihydro-1,4-phthalazindione) and lucigenine (10,10'-dimethyl-9,9'-biacri-diniumdinitrate), which increase the CL-response by 10^3 times.
All tests were carried out in 6-channel-Biolumat LB 9505 of Berthold, connected to an Apple-computer with a CL-evaluation program of Berthold.
Lucigenine was chosen for light amplification which emits photons at a narrow wavelength distribution of about 510 nm and thus almost lies in the optimum of the photo-multiplier sensitivity.
The pH-value of the measuring solution should be between 7.1 and 7.4, which is obtained by the addition of veronal-buffered salt solution. The test substances were dissolved in phosphate-buffered salt solution, (PBS-buffer). Both buffer systems contain 0.1% of glucose, because the "respiratory-burst"-reaction is connected with an increase of the glucose-metabolism.
Opsonised zymosan was used for phagocyte-activation. The measurement of the CL of isolated granulocytes was carried out with native blood of isolated polymorphonuclear leucocytes (PMNL), which had been adjusted with PBS-Puffer to 10^6 […].
The test substances were first together with the isolated granulocytes or with the whole blood incubated at room temperature for 10 minutes and then in biclumate for 10 minutes at 37° C. After addition of the opsonised zymosan, measurement in the biolumat at 37° C. started. […] A curve which was typical for each substance was obtained. The integrated surfaces are directly proportional to the intensity of the CL-response.
For determining the stimulation of the "respiratory-burst" of granulocytes,which had taken place, the same formula as for the granulocytic test was used.
20 ml of native blood were mixed with 30 mg EDTA. 15 ml of this blood were mixed with 7 ml of dextran in a syringe and allowed to stand at room temperature for 30 minutes. The leucocyte-containing supernatant was transfered into a sterile centrifugal tube and centrifugated at 1000 r.p.m. for 10 minutes. The deposit consisted of leucocytes and residual portions of erythrocytes, which can influence measurement by their colour quench. The residual erythrocytes were removed by hypotonic lyis. For this purpose, the deposit was suspended in 0.25% of NaCl-solution and agitated on the whirlmix for 20 seconds. Then 20 ml of 1.6% NaCl-solution were admixed and agitated again. After centrifugation at 2000 r.p.m. for 10 minutes, the supernatant was sucked off and the whole process was repeated twice. Subsequently, the deposit was suspended in 2 ml of PBS-buffer and diluted 1:10 with Turcks-solution. It was adjusted in the Neubauer's chamber with PBS-buffer to 10^6 -cells/ml.
630 μl of veronal-buffered salt solution
100 μl of lucigenine-solution
200 μl of substance dissolved in PBS and PBS as control
After preincubation at room temperature for 10 minutes and subsequent incubation for 10 minutes at 37° C. in 6-channel-Biolumat, 40 μl of opsonised zymosan were admixed under through stirring and measurement was started. Measuring was stopped after 60 minutes.
The CL-response of the samples was stored by a computer over the measuring period, and after measurement illustrated in the form of a curve. By integration of the surfaces, the intensity of the CL-response of the respective sample was obtained in cpm.
The increase S of the CL-response by a test substance was calculated according to [formula]

[2] = test system: neutrophil granulocytes (PMNL); assay: Granulocytic test modified after BRANDT (phagocytosis of yeast particles); type: cell-based, human
Excerpt: 1. […] They represent about 60-70% of all leucocytes in the human blood. The phagocytosis effect of all these granulocytes can be measured in vitro according to a method developed by BRAND (Scand. J. Haematol. Suppl. 2, 1967) and modified by TYMPNER (Munich Med. Weekly 8, 251, 1978).
A granulocytic fraction is taken from the blood of healthy probands (PMNL--abbreviation of polymorphonuclearleucocytes)
This PMNL-fraction mainly consists of neutrophil granulocytes and few eosinophil and basophil granulocytes as well as of lymphocytes, monocytes and thrombocytes. After addition of a defined amount of yeast cells (Saccharomyces cerevisiae) and the substance to be tested incubation is carried out for 10 minutes at 37° C., the suspension is spread on an object carrier and incubated at room temperature for further 35 minutes. Then the spreads are coloured and microscopically evaluated. 100 PMNL-cells are selected per object carrier, and it is determined how many yeast particles of the individual cells have been phagocytised. The phagocytosis index indicates the average number of phagocytised yeast particles.
15 ml of heparinised venous blood of clinically healthy adults was diluted with 1.5% of dextran T 500 (Pharmacia) 2:1 and allowed to stand at room temperature for 30 minutes. The supernatant containing leucocytes was injected into a sterile plastic tube and centrifugated for 7 minutes at 500 r.p.m. The granulocytes in the deposit were washed twice with 5 ml of PPM I-buffer in each case. Then the granulocytes were suspended in about 5 ml of buffer and adjusted in the Neubauer's chamber to a concentration of 5×10^6 cells/ml.
Yeast suspended in 0.9% of NaCl was heated to 100° C., three times filtered through gaze and adjusted to 3-5×10^7 particles/ml.
The serum of 5 clinically healthy adults was mixed and frozen in portions of 5 ml. For the test dilution was carried out with 0.9% of NaCl 1:10.
The test was carried out as follows: 0.2 ml of substance dissolved in 0.9% of NaCl and 0.2 ml of 0.9% NaCl, as a control substance, were pipetted to 0.2 ml, each, of pool serum, granulocyte- and yeast suspension and first incubated for 10 minutes at 37° C. Then 0.5 ml of each preparation were applied to an object carrier and incubated in a humid chamber at room temperature for further 35 minutes. Granulocytes deposited, the supernatant was carefully washed with 0.9% of NaCl, and the object carrier was dried with a dryer.
100 granulocytes were counted out per object carrier, and it was determined how many yeast particles of the individual cells had been phagocytised. The phagocytosis index (PJ) indicates the average number of yeast particles per granulocyte. The increase (S) of the phagocytosis activity in the blank value was calculated according to: [formula]

[3] = up to a concentration of 10^-4 %

| Compound | activity in the granulocytic test [2] | percental phagocytosis increase ([2]; concentration 10^-2) [%] | percental phagocytosis increase ([2]; concentration 10^-3) [%] | percental phagocytosis increase ([2]; concentration 10^-4) [%] | percental phagocytosis increase ([2]; concentration 10^-5) [%] | effect in the granulocytic test [2, 3] | also measured |
| --- | --- | --- | --- | --- | --- | --- | --- |
| COC(=O)C1=COC(C)C2CN3CCC4(C(=O)Nc5ccccc54)C3CC12 (single isomer, unassigned; isomer a) [Isomitraphylline, normal-isomitraphylline, isomer A] | active | 16.5 | 27.0 | 27.0 | 19.4 | – | percental increase of the CL-response ([1]; concentration 10^-3 %): 15.4%; percental increase of the CL-response ([1]; concentration 10^-4 %): 15.7%; percental increase of the CL-response ([1]; concentration 10^-5 %): 36.1%; percental increase of the CL-response ([1]; concentration 10^-6 %): 46.7%; percental increase of the CL-response ([1]; concentration 10^-7 %): 18.6%; percental phagocytosis increase ([2]; concentration 10^-6): 5.7% |
| COC(=O)C1=COC(C)C2CN3CCC4(C(=O)Nc5ccccc54)C3CC12 (single isomer, unassigned; isomer a) [Isopteropodine, allo-isopteropodine, isomer A] | active | 23.4 | 48.7 | 55.9 | 38.2 | – | activation at 1e-08 % ([1]; Homo sapiens, PMNL, concentration 10^-8 %, read-out: percental increase of the CL-response): 31.2%; percental increase of the CL-response ([1]; concentration 10^-3 %): 67.2%; percental increase of the CL-response ([1]; concentration 10^-4 %): 66.0%; percental increase of the CL-response ([1]; concentration 10^-5 %): 55.7%; percental increase of the CL-response ([1]; concentration 10^-6 %): 68.1%; percental increase of the CL-response ([1]; concentration 10^-7 %): 55.3%; percental phagocytosis increase ([2]; concentration 10^-6): 28.2%; percental phagocytosis increase ([2]; concentration 10^-7): 13.6% |
| CCC1CN2CCC3(C(=O)Nc4ccccc43)C2CC1C(=COC)C(=O)OC (single isomer, unassigned; isomer a) [Isorhynchophylline, normal-isorhynchophylline, isomer A] | active | 10.8 | 25.2 | 27.3 | 16.1 | – | percental phagocytosis increase ([2]; concentration 10^-6): 8.8% |
| COC(=O)C1=COC(C)C2CN3CCC4(C(=O)Nc5ccccc54)C3CC12 (single isomer, unassigned; isomer b) [Mitraphylline, normal-mitraphylline, isomer B] | not active | – | – | – | – | – | – |
| COC(=O)C1=COC(C)C2CN3CCC4(C(=O)Nc5ccccc54)C3CC12 (single isomer, unassigned; isomer b) [Pteropodine, allo-pteropodine, isomer B] | active | 11.2 | 21.7 | 26.1 | 23.0 | – | percental increase of the CL-response ([1]; concentration 10^-3 %, listed as Pteropidine): 10.6%; percental increase of the CL-response ([1]; concentration 10^-4 %, listed as Pteropidine): 10.0%; percental increase of the CL-response ([1]; concentration 10^-5 %, listed as Pteropidine): 23.7%; percental increase of the CL-response ([1]; concentration 10^-6 %, listed as Pteropidine): 15.4% |
| CCC1CN2CCC3(C(=O)Nc4ccccc43)C2CC1C(=COC)C(=O)OC (single isomer, unassigned; isomer b) [Rhynchophylline, normal-rhynchophyllin, isomer B] | not active | – | – | – | – | – | – |
| C=C[C@]12CN(C)[C@@H]3[C@H]4CO[C@H](C[C@H]41)[C@]1(C(=O)Nc4ccccc41)[C@@H]32 [Gelsemine, gelsemine, reference compound] | – | 22.1 | 40.4 | 33.7 | 8.2 | – | – |
| COC(=O)C1=COC(C)C2CN3CCC4(C(=O)Nc5ccccc54)C3CC12 (centres unmarked) [Speciophylline, speciophylline] | – | 10.5 | 18.5 | 26.0 | 35.3 | – | – |
| COc1ccc2cc3[n+](cc2c1OC)CCc1cc2c(cc1-3)OCO2 [berberine, reference compound] | – | – | – | – | – | inactive | – |
| CC[C@@]1(O)C(=O)OCc2c1cc1n(c2=O)Cc2cc3ccccc3nc2-1 [camotothecine, reference compound] | – | – | – | – | – | – | effect in the granulocytic test ([2]; up to dilutions of 10^-6 %): no effects have been found |
| O=c1cccc2n1C[C@@H]1CNC[C@H]2C1 [cytisine, reference compound] | – | – | – | – | – | – | effect in the granulocytic test [2]: did not show any effect |
| C1CCN2C[C@@H]3C[C@@H](CN4CCCC[C@@H]34)[C@H]2C1 [sparteine, reference compound] | – | – | – | – | – | did not show any effect | – |
| COc1cc2c(cc1OC)[C@H](Cc1ccc(Oc3c4c(cc(OC)c3OC)-c3c(OC)c(OC)c(OC)c5c3[C@H](C4)N(C)CC5)cc1)N(C)CC2 [thalifaberine, reference compound] | – | – | – | – | – | negative | – |
| huangshanine [reference compound] | – | – | – | – | – | negative | – |
| thalifabine [reference compound] | – | – | – | – | – | negative | – |

Source: patent publication US5302611A, “Oxindole alkaloids having properties stimulating the immunologic system & preparation containing the same” (Keplinger; Klaus, priority 1980, dated 1994)
